Reference: patent US12565485B2, “Solid forms of 1-((S)-4-((R)-7-(6-amino-4-methyl-3-(trifluoromethyl)pyridin-2-yl)-6-chloro-8-fluoro-2-(((s)-1-methylpyrrolidin-2-yl)methoxy)quinazolin-4-yl)-3-methylpiperazin-1-yl)prop-2-en-1-one” (Genentech, Inc., priority 2022, dated 2026)
Values belong to the compound of their own block, whether it stands above or below them.

Columns and labels:
[1] = Moisture absorption observed during XRPD test; assay type: physicochemical
Protocol: Compound E Form A was obtained from acetone system. Limited solids were observed after stirring at 5° C. […] The suspension was transferred to −20° C., but limited solids were still observed. Anti-solvent (n-heptane) was added and the sample was transferred to 5° C. However, gel was obtained.

Anti-solvent addition = assay type: physicochemical
Protocol: Anti-solvent addition. A total of 12 anti-solvent addition experiments were carried out. […] The obtained precipitate was isolated for XRPD analysis.
Anti-solvent addition Compound A. A total of 14 anti-solvent addition experiments were carried out. […] The obtained precipitate was isolated for XRPD analysis.

[2] = Slurry conversion experiments (XRPD of isolated solids); assay type: physicochemical
Protocol: Slurry conversion experiments were conducted at RT in different solvent systems. About 15˜20 mg of freebase starting material (Compound 1) was suspended in 0.5 mL of solvent in an HPLC vial. Solids were isolated for XRPD analysis after magnetically stirring at RT.
Slurry at 5°. Slurry conversion experiments were conducted at 5° C. in different solvent systems. About 15˜20 mg of freebase starting material (Compound 1) was suspended in 0.5 mL of solvent in an HPLC vial. Solids were isolated for XRPD analysis after magnetically stirring at 5° C.
Slurry at 50°. Slurry conversion experiments were conducted at 50° C. in different solvent systems. About 20 mg of freebase starting material (Compound 1) was suspended in 0.5 mL of solvent in an HPLC vial. Solids were isolated for XRPD analysis after magnetical stirring at 50° C.
Slurry at RT for Compound A. Slurry conversion experiments were conducted at RT in different solvent systems. […] Solids were isolated for XRPD analysis after magnetic stirring at RT.
Slurry at 50° for Compound A. Slurry conversion experiments were conducted at 50° C. in different solvent systems. […] Solids were isolated for XRPD analysis after magnetic stirring at 50° C.

Liquid vapor diffusion = assay type: physicochemical
Protocol: (§1) Liquid vapor diffusion. Liquid vapor diffusion experiments were conducted in different solvent systems. […] This solution was then placed into a 20-mL vial with 3 mL of corresponding anti-solvent. The 20-mL vial was sealed with a cap and kept at RT allowing sufficient time for organic vapor to interact with the solution. The precipitates were isolated for XRPD analysis.
as §1, with “diffusion Compound A.” for “diffusion.”

Slow evaporation = assay type: physicochemical
Protocol: Slow evaporation. Slow evaporation experiments were performed under 10 conditions. Briefly, about 15˜20 mg of freebase starting material (810935-01-A) was dissolved in 0.5˜1.0 mL of solvent in a 3-mL glass vial.
Slow evaporation Compound A. Slow evaporation experiments were performed under seven conditions.

[3] = Summary of polymorph screening experiments, total over all methods; assay type: physicochemical
Protocol: A total of 64 polymorph screening experiments were performed for freebase Compound 1 using the sample received as starting material through different crystallization methods. As a result, Form A was obtained from polymorph screening.
Results summarized in Table 40 were used to guide the solvent selection in polymorph screening of adipate.

[4] = VH-XRPD analysis / transitions of forms at varying relative humidity; assay type: physicochemical
From the text: FIG. 19. The sample then reverts to the original form upon reaching 30% RH. […] Transitions of Forms of Compound A at varying RH.

[5] = Overall summary of solid form stability; conditions: compared with the other identified salt forms
From the text: Overall Summary. […] The amorphous form is considered for development purposes to be unstable for further development.

Solid vapor diffusion = assay type: physicochemical; conditions: adipate polymorph screening summary; Solid Vapor Diffusion
Protocol: Solid vapor diffusion Compound A. Solid vapor diffusion experiments were conducted using 12 different solvents. […] The 20-mL vial was sealed with a cap and kept at RT allowing solvent vapor to interact with the sample.

Slow cooling = assay type: physicochemical; conditions: adipate polymorph screening summary; Slow Cooling
Protocol: Slow cooling Compound A. Slow cooling experiments were conducted in four solvent systems. […] The suspension was then heated to 50° C., equilibrated for about 2 hr and filtered to a new vial using a seal membrane (PTFE, pore size of 0.45 μm). Filtrates were slowly cooled down to 5° C. at a rate of 0.1° C./min. The obtained solids were kept isothermal at 5° C. before isolation for XRPD analysis.

Compound: C=CC(=O)N1CCN(c2nc(OC[C@@H]3CCCN3C)nc3c(F)c(-c4nc(N)cc(C)c4C(F)(F)F)c(Cl)cc23)[C@@H](C)C1.CS(=O)(=O)O (atropisomer, axis not shown) [Compound E Form A]
- Moisture behaviour of the sample during XRPD test [1]: tended to absorb moisture and turn to liquid

- Result (Anti-solvent addition; freebase polymorph screening summary, Anti-solvent Addition): Form A, amorphous, gel,
- Result (Anti-solvent addition; freebase, solvent 1.4-Dioxane, anti-solvent H2O): Gel
- Result (Anti-solvent addition; freebase, solvent ACN, anti-solvent n-Heptane): Form A (Low
- Result (Anti-solvent addition; freebase, solvent Acetone, anti-solvent n-Heptane): Form A (Low
- Result (Anti-solvent addition; freebase, solvent Anisole, anti-solvent Cyclohexane): Gel
- Result (Anti-solvent addition; freebase, solvent CPME, anti-solvent n-Heptane): Amorphous
- Result (Anti-solvent addition; freebase, solvent DCM, anti-solvent Cyclohexane): Form A (Low
- Result (Anti-solvent addition; freebase, solvent DMSO, anti-solvent H2O): Low crystallinity
- Result (Anti-solvent addition; freebase, solvent EtOAc, anti-solvent n-Heptane): Amorphous
- Result (Anti-solvent addition; freebase, solvent MEK, anti-solvent Cyclohexane): Gel
- Result (Anti-solvent addition; freebase, solvent MeOH, anti-solvent H2O): Amorphous
- Result (Anti-solvent addition; freebase, solvent THF, anti-solvent H2O): Form A (Low
- Result (Anti-solvent addition; freebase, solvent Toluene, anti-solvent n-Heptane): Amorphous
- Slurry conversion result (XRPD form) ([2]; 5° C., different solvent systems): Form A and amorphous were obtained
- Slurry conversion result (XRPD form) ([2]; 50° C., H2O): Amorphous
- Slurry conversion result (XRPD form) ([2]; 50° C., different solvent systems): amorphous was obtained
- Slurry conversion result (XRPD form) ([2]; 50° C., n-Heptane): Amorphous
- Slurry conversion result (XRPD form) ([2]; RT, different solvent systems): Form A and amorphous were obtained
- Result ([2]; freebase polymorph screening summary, Slurry at RT/5 °C/50 °C): Form A, amorphous, gel,
- Result ([2]; freebase slurry at 5° C., 2-MeTHF/n-Heptane, 1:3): Gel
- Result ([2]; freebase slurry at 5° C., ACN): Form A
- Result ([2]; freebase slurry at 5° C., DMAc/n-Heptane, 1:3): Gel
- Result ([2]; freebase slurry at 5° C., DMF/H2O, 1:3): Amorphous
- Result ([2]; freebase slurry at 5° C., Ethyl lactate/H2O, 1:3): Gel
- Result ([2]; freebase slurry at 5° C., IPAc/n-Heptane, 1:3): Amorphous
- Result ([2]; freebase slurry at 5° C., MIBK/n-Heptane, 1:3): Gel
- Result ([2]; freebase slurry at 5° C., NMP/H2O, 1:4): Amorphous
- Result ([2]; freebase slurry at 5° C., Xylene/n-Heptane, 1:3): Amorphous
- Result ([2]; freebase slurry at RT, 1,4-Dioxane/H2O, 1:4): Amorphous
- Result ([2]; freebase slurry at RT, ACN): Form A
- Result ([2]; freebase slurry at RT, ACN/H2O, 1:1): Form A (Low crystallinity)
- Result ([2]; freebase slurry at RT, Acetone/H2O, 1:4): Form A
- Result ([2]; freebase slurry at RT, Anisole/n-Heptane, 1:4): Gel
- Result ([2]; freebase slurry at RT, Benzyl alcohol/n-Heptane, 1:4): Gel
- Result ([2]; freebase slurry at RT, CPME/Cyclohexane, 1:4): Amorphous
- Result ([2]; freebase slurry at RT, DCM/n-Heptane, 1:4): Form A
- Result ([2]; freebase slurry at RT, EtOAc/Cyclohexane, 1:4): Amorphous
- Result ([2]; freebase slurry at RT, EtOH): Form A
- Result ([2]; freebase slurry at RT, EtOH/H2O, 1:1): Form A
- Result ([2]; freebase slurry at RT, IPA): Form A (Low crystallinity)
- Result ([2]; freebase slurry at RT, MEK/Cyclohexane, 1:4): Amorphous
- Result ([2]; freebase slurry at RT, MTBE): Gel
- Result ([2]; freebase slurry at RT, THF/n-Heptane, 1:4): Form A
- Result ([2]; freebase slurry at RT, Toluene/Cyclohexane, 1:4): Amorphous
- Result (Liquid vapor diffusion; freebase polymorph screening summary, Liquid Vapor Diffusion): Form A, amorphous, gel, clear
- Result (Liquid vapor diffusion; freebase, RT, solvent 1.4-Dioxane, anti-solvent n-Heptane): Gel
- Result (Liquid vapor diffusion; freebase, RT, solvent 2-Butanol, anti-solvent n-Heptane): Gel
- Result (Liquid vapor diffusion; freebase, RT, solvent ACN, anti-solvent H2O): Form A
- Result (Liquid vapor diffusion; freebase, RT, solvent Acetone, anti-solvent n-Pentane): Form A
- Result (Liquid vapor diffusion; freebase, RT, solvent Anisole, anti-solvent n-Pentane): Gel
- Result (Liquid vapor diffusion; freebase, RT, solvent CPME, anti-solvent n-Pentane): Gel
- Result (Liquid vapor diffusion; freebase, RT, solvent DMF, anti-solvent H2O): Clear solution
- Result (Liquid vapor diffusion; freebase, RT, solvent DMSO, anti-solvent H2O): Amorphous
- Result (Liquid vapor diffusion; freebase, RT, solvent EtOAc, anti-solvent n-Pentane): Gel
- Result (Liquid vapor diffusion; freebase, RT, solvent IPAc, anti-solvent n-Heptane): Amorphous
- Result (Liquid vapor diffusion; freebase, RT, solvent THF, anti-solvent H2O): Form A (Low crystallinity)
- Result (Liquid vapor diffusion; freebase, RT, solvent Toluene, anti-solvent n-Heptane): Gel
- Result (Liquid vapor diffusion; freebase, RT, solvent Xylene, anti-solvent n-Pentane): Gel
- Result (Slow evaporation; freebase polymorph screening summary, Slow Evaporation): Form A, amorphous, gel
- Result (Slow evaporation; freebase, evaporation at RT, 2-MeTHF): Gel
- Result (Slow evaporation; freebase, evaporation at RT, ACN): Form A
- Result (Slow evaporation; freebase, evaporation at RT, Acetone): Form A
- Result (Slow evaporation; freebase, evaporation at RT, DCM): Form A (Low crystallinity)
- Result (Slow evaporation; freebase, evaporation at RT, EtOAc): Amorphous
- Result (Slow evaporation; freebase, evaporation at RT, EtOH): Form A
- Result (Slow evaporation; freebase, evaporation at RT, IPAc): Gel
- Result (Slow evaporation; freebase, evaporation at RT, MEK): Amorphous
- Result (Slow evaporation; freebase, evaporation at RT, MeOH): Amorphous
- Result (Slow evaporation; freebase, evaporation at RT, THF): Amorphous
- Result ([3]; freebase polymorph screening summary): Form A, amorphous, gel, clear
Compound: C=CC(=O)N1CCN(c2nc(OC[C@@H]3CCCN3C)nc3c(F)c(-c4nc(N)cc(C)c4C(F)(F)F)c(Cl)cc23)[C@@H](C)C1 (atropisomer, axis not shown) [Compound 1, 1-((S)-4-((R)-7-(6-amino-4-methyl-3-(trifluoromethyl)pyridin-2-yl)-6-chloro-8-fluoro-2-(((S)-1-methylpyrrolidin-2-yl)methoxy)quinazolin-4-yl)-3-methylpiperazin-1-yl)prop-2-en-1-one]

- RH at which sample reverts to the original form (VH-XRPD) [4]: 30 % RH
- RH at which small changes appear in VH-XRPD ([4]; changes remain up until 80% RH): 44-46 % RH
- Stability of the form for further development [5]: most stable form
Compound: C=CC(=O)N1CCN(c2nc(OC[C@@H]3CCCN3C)nc3c(F)c(-c4nc(N)cc(C)c4C(F)(F)F)c(Cl)cc23)[C@@H](C)C1 [Compound A]

- Result (Anti-solvent addition; adipate polymorph screening summary, Anti-solvent Addition): Compound A Form A, B, clear, gel
- Result ([2]; adipate polymorph screening summary, Slurry at RT/50° C.): Compound A Form A, gel, clear
- Result (Liquid vapor diffusion; adipate polymorph screening summary, Liquid Vapor Diffusion): Amorphous, clear, gel
- Result (Solid vapor diffusion): Compound A Form A
- Result (Slow cooling): Compound A Form A
- Result (Slow evaporation; adipate polymorph screening summary, Slow Evaporation): Gel, clear
- Result ([3]; adipate polymorph screening summary): Compound A Form A, Compound A Form
Compound: C=CC(=O)N1CCN(c2nc(OC[C@@H]3CCCN3C)nc3c(F)c(-c4nc(N)cc(C)c4C(F)(F)F)c(Cl)cc23)[C@@H](C)C1.O=C(O)CCCCC(=O)O [adipate]
